Assay [1] addresses T1, DNA repair nuclease/redox regulator APEX1 (Homo sapiens, UniProt P27695). Description: Inhibition of nuclease activity of APE1 in human glioblastoma cells assessed as reduction in AP site DNA cleavage. The format is cell-based.
Assay [2] addresses T1, DNA repair nuclease/redox regulator APEX1. Description: Inhibition of human APE1 using a 5'-TAMRA labelled THF abasic site double-stranded oligodeoxynucleotide as substrate in presence of Mg2+ by fluorescence polarization displacement assay. For orientation: Polarisation of emitted light reports the rotation of a fluorescent probe.
Assay [3] shares this target. Nature of the assay: Inhibition of human APE1 measured every 5 mins for 60 mins by FAM fluorophore based fluorescence assay.
For assay [4] the target is unchanged. Nature of the assay: Inhibition of N-terminal hexa-His tagged human APE1 expressed in Escherichia coli BL21 (Rosetta) using fluorescein-dabcyl-containing oligonucleotide as substrate measured over 5 mins by high-throughput fluorescence assay.
The target is the same in assay [5]. Description: Inhibition of APE1 in human HeLa cells assessed as reduction in AP site cleavage 5'-[gamma-32P]CTCGCAAGUGGGTACCGA-3' as substrate after 1 hr. The format is cell-based.
Assay [6] has the same target. Description: Inhibition of His-tagged human APE1 expressed in Escherichia coli M15 assessed as reduction in cleavage of 26 mer substrate to 13 mer products pre-incubated for 30 mins before substrate addition for 15 mins using 5' end [32P] AP site containing 26 mer oligonucleotide by polyacrylamide gel electrophoresis.
For assay [7] the target is unchanged. Nature of the assay: Inhibition of human APE1 assessed as reduction in abasic sites DNA cleavage using 6-FAM/TAMRA labelled 17-Tphi as substrate by fluorescence-based assay.
The target is the same in assay [8]. Description: Inhibition of […] activity of full length N-terminal hexa-His SUMO-fused human APE1 using HEX-labeled THF oligonucleotide as substrate preincubated for 30 to 120 mins followed by substrate addition measured after 15 mins by fluorescence assay.
Assay [9] shares this target. Nature of the assay: Inhibition of recombinant human APE1 using 5'-F-GCCCCCXGGGGACGTACGATATCCCGCTCC-3' as substrate preincubated for 10 mins followed by substrate addition measured at 5 mins intervals for 30 mins by fluorescence-based assay.
Assay [10] shares this target. Description: Inhibition of recombinant human APE1 using a 5'-FAM/3'-Dabsyl labelled double-stranded DNA as substrate after 30 mins by fluorescence-based assay.
For assay [11], the system named is Panel NCI-60 (60 carcinoma cell lines). Description: Growth inhibition in human NCI60 cells after 72 hrs by CellTiterGlo assay. In kind it is functional. (In general: In ATP-based viability assays light output follows the ATP content of the culture.)
Assay [12] has as its target T1, DNA repair nuclease/redox regulator APEX1. Nature of the assay: Inhibition of APE1 in human HeLa cells. In kind it is cell-based.
The target is the same in assay [13]. Description: Binding affinity to full length human APE1 expressed in Escherichia coli BL21/DE3.

The results in this text go back to ChEMBL document CHEMBL4184129, “Inhibitors of nuclease and redox activity of apurinic/apyrimidinic endonuclease 1/redox effector factor 1 (APE1/Ref-1)” (Bioorg Med Chem, 2017).

The term IC50 denotes the concentration that inhibits the measured activity by half. Usually GI50 stands for the concentration that inhibits growth by half. The low end stands for greater sensitivity of the cells, the high end for lower sensitivity of the cells. By Kd is commonly meant a measure of binding affinity in units of concentration. Higher therefore signals a looser complex.

Molecules are shown by their SMILES.

T1 sequence (P27695 whole entry): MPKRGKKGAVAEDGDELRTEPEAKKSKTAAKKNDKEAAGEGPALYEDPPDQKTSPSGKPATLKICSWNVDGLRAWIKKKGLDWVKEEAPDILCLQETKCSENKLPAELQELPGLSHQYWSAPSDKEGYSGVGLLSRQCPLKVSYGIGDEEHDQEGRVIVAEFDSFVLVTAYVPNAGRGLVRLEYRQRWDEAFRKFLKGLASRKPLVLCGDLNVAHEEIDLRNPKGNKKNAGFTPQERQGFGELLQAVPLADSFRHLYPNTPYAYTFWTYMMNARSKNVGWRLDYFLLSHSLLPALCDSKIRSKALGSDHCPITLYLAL

For `O=c1oc(-c2ccccc2F)nc2cc(Cl)ccc12`, the IC50 in assay [1] came out at 1600 nM. On to `COc1cc2c(ccc3cc(OC)c(OC)c(O)c32)cc1O`, for which the IC50 in assay [2] is 400 nM. In turn, `CC1=C/C(=C(/c2ccc(O)c(C)c2)c2ccccc2C(=O)O)C=CC1=O` showed an IC50 in [3] of 1700 nM. The compound `Cc1ccc(C)n1-c1ccc(OCC(=O)O)cc1` gave an IC50 in [4] of 1700 nM. The same measure, in the same setting: the figure for `Cc1cc(C)c2c(N)c3cccc(C)c3nc2n1` is 2100 nM.

In assay [3], `Nc1c(S(N)(=O)=O)cc(S(N)(=O)=O)cc1S(N)(=O)=O` displayed an IC50 of 1400 nM. `CCOC(=O)c1cc(-c2ccc(/C=C3/C(=O)N(c4ccc(C(=O)O)cc4)N=C3C)o2)ccc1Cl`: in assay [2], the IC50 amounted to 6800 nM. Regarding `O=C1NC(=O)N(Cc2ccco2)C(=O)/C1=C/C=C/c1ccco1`, in [2], the IC50 was determined as 2800 nM.

On to `O=C(O)c1cc2cccc([N+](=O)[O-])c2[nH]1`, for which the IC50 in assay [5] came out at 3060 nM. Take `O=C(Nc1cccc(Cl)c1)c1noc2c1CCC2`: the midpoint of inhibition in [4], the IC50, lay at 1600 nM. As for `COc1cccc(CNC(=O)c2cccc(C(=O)O)c2OC)c1`, in assay [6], the half-inhibitory concentration (IC50) is 19000 nM. Regarding `C=C1S/C(=N\c2ccccc2Cl)N(C(=O)c2sc3ccccc3c2Cl)C12CCCCC2`, the IC50 in assay [1] worked out at 1400 nM. Consider `COc1ccc(CNC(=O)c2cccc(C(=O)O)c2OC)cc1OC`, for which the IC50 in [6] stood at 18000 nM. With `Cc1sc(Nc2cc(Cl)cc(Cl)c2)nc1-c1ccc(-c2ccccc2F)cc1`, the 50% inhibitory concentration (IC50) in assay [1] was 900 nM. Turning to `c1cc2ccc3cc2cc1CNCCNCCNCc1ccc2ccc(cc2c1)CNCCNCCNC3`, in [7], the IC50 stood at 57 nM.

`CCCCCCCCC/C(=C\C1=C(C)C(=O)C(OC)=C(OC)C1=O)C(=O)NOC`: the IC50 in assay [8] amounted to 8500 nM.

As for `O=S(=O)(Oc1ccc(-c2ccc(OS(=O)(=O)c3ccc(Cl)c(Cl)c3)cc2)cc1)c1ccc(Cl)c(Cl)c1`, in assay [1], the IC50 was determined as 1800 nM.

`CC(C)(C)c1ccc(S(=O)(=O)Oc2ccc(-c3ccc(Oc4c(Cl)cccc4[N+](=O)[O-])cc3)cc2)cc1`: the 50% inhibitory concentration (IC50) in assay [1] was 1700 nM. On to `COc1c(C(=O)O)cccc1C(=O)NCc1ccc(Cl)c(Cl)c1`, for which, in assay [6], the IC50 stood at 18000 nM. For `O=C(OCC(=O)N1NC(c2ccc3ccccc3c2)=C[C@@H]1c1ccccc1)c1ccc([N+](=O)[O-])s1`, the IC50 in assay [9] was determined as 3000 nM. With `O=C(O)CC[C@H]1N[C@@]2(C(=O)Nc3c(Cl)cccc32)[C@H]2C(=O)N(Cc3ccc4c(c3)OCO4)C(=O)[C@@H]12`, the IC50 in [10] worked out at 1800 nM. As for `c1cc2ccc3cc2cc1CNCCOCCNCc1ccc2ccc(cc2c1)CNCCOCCNC3`, the IC50 in [7] stood at 55 nM. With `CC(C)(C)c1ccc(OC(=O)c2sc3ccccc3c2Cl)c(C(C)(C)C)c1`, in [1], the half-maximal inhibitory concentration (IC50) came to 800 nM.

For the compound `O=C(c1cc2ccccc2o1)[C@@H](O)c1nc2ccccc2s1`, the IC50 in [9] was 2000 nM. `Cc1sc(-c2ccc(Cl)cc2)nc1-c1ccc(-c2ccccc2F)cc1`: the IC50 in assay [1] came to 1300 nM.

Turning to `COc1c(C(=O)O)cccc1C(=O)NCc1cccc(Cl)c1`, in assay [6], the IC50 was 16000 nM. Regarding `O=c1oc(-c2ccc(Cl)cc2Cl)nc2ccc([N+](=O)[O-])cc12`, the half-maximal inhibitory concentration (IC50) in assay [1] was 2000 nM. As for `CCn1c2ccccc2c2cc(/C=N/Nc3cc(C)nc4cc5c(cc34)OCO5)ccc21`, the 50% growth inhibitory concentration (GI50) in assay [11] was 4200 nM.

As for `O=[N+]([O-])c1cccc(S(=O)(=O)[N-]c2nc3ccccc3nc2-[n+]2ccc(Cc3ccccc3)cc2)c1`, the half-maximal inhibitory concentration (IC50) in assay [10] was determined as 6800 nM. Consider `Brc1cc(-c2cc(Br)c(Br)c(Br)c2)cc(Br)c1Br`, for which the IC50 in assay [1] was determined as 200 nM. For `O=C(CSc1ncn[nH]1)Nc1cccc2c1C(=O)c1ccccc1C2=O`, the IC50 in assay [12] was found to be 4000 nM. Take `Cc1coc2c1C(=O)C(=O)c1c-2ccc2c1CCCC2(C)C` [TANSHINONE IIA]: the Kd in assay [13] came to 0.88 nM.
